The text below walks through data of PubChem BioAssay AID1996.

Converted amounts (≈) assume the structure as drawn.

The term kinetic solubility denotes the concentration staying in solution when a stock, usually in DMSO, is diluted into the medium.

For the data set the following is noted: buffer; pH 7.4; 200.0 µM.
Take `Cc1ccc([N+](=O)[O-])c(OCCCN2C(=O)NC(C)(C)C2=O)c1`: the kinetic solubility is over 48.2 µg/mL. `COc1cc(C(NC=O)C(=O)Nc2c(C)cccc2C)ccc1O` (stereo not drawn) had a kinetic solubility of 45.4 µg/mL (≈ 138 µM). Consider `CN(C)c1ccc(Nc2nc(N)c3ccccc3n2)cc1.Cl`, for which the solubility (kinetic) was over 47.4 µg/mL. Compound `O=C(Nc1ccnc(-c2ccncc2)n1)c1ccccc1Cl` returned a solubility (kinetic) of 0.9 µg/mL (≈ 2.9 µM). Take `Cc1cc(C)c(S(=O)(=O)NC2CC3CCC2C3)c(C)c1` (stereo not drawn): the solubility (kinetic) is under 0.6 µg/mL. Compound `COCCOC(=O)c1sc2nc[nH]c(=O)c2c1C` came in with a kinetic solubility of over 40.2 µg/mL.

On to `N#C/C(=C/c1cc[nH]c1)C(N)=S`, for which the solubility (kinetic) was over 26.6 µg/mL. `O=C(NCCCn1ccnc1)c1ccc(OCC(F)(F)F)cc1` registered a solubility (kinetic) of 43.4 µg/mL (≈ 133 µM). `CCOCCCNC(=O)C1CC(=O)N(CCc2ccc(C)cc2)C1` (stereo not drawn): the solubility (kinetic) is over 49.9 µg/mL.

In the case of `NC(=O)c1ccc(S(=O)(=O)N2CCSCC2)cc1`, the solubility (kinetic) is 37.9 µg/mL (≈ 132 µM). For `O=C(CSc1c[nH]c2ccccc12)NC1CCCC1`, the solubility (kinetic) was over 41.2 µg/mL. To `CN(C)C(=O)CSc1nc2ccc(N3C(=O)c4ccccc4C3=O)cc2s1` belongs 3.1 µg/mL (≈ 7.8 µM); to `COc1ccc(N2Cc3ccccc3C2=O)cc1`, 12.8 µg/mL (≈ 53.5 µM). Regarding `NCCCCCC(=O)O`, the solubility (kinetic) is 0.9 µg/mL (≈ 6.86 µM). `CCOc1ncccc1C(=O)OCC(=O)Nc1ccc2c(c1)CCC2` had a kinetic solubility of 8.1 µg/mL (≈ 23.8 µM). Next, `CN(c1ccc(C(=O)Nc2cccnc2)cc1)S(=O)(=O)c1ccccc1`: over 55.1 µg/mL; `CC1CCC2(CC1)NC(=O)N(CC(=O)N1c3ccccc3CC1C)C2=O` (stereo not drawn): 5.2 µg/mL (≈ 14.6 µM); `CCCN(CC1CC1)C(=S)NC(=O)C1CC1`: over 36.1 µg/mL. Next, `CCc1ccc(NC(=O)COC(=O)CCC2CCCC2)cc1`: 7.9 µg/mL (≈ 26 µM); `O=C1CN(C(=O)COC(=O)c2ccc(Br)o2)c2ccccc2N1`: 9.5 µg/mL (≈ 25.1 µM). For the compound `N#Cc1ccccc1COC(=O)CCN=C1NS(=O)(=O)c2ccccc21`, the kinetic solubility amounted to 52.4 µg/mL (≈ 142 µM).

In turn, `O=C(CSc1cccc[n+]1[O-])Nc1cc(Cl)ccc1[N+](=O)[O-]` yielded a kinetic solubility of over 51 µg/mL. Regarding `COc1ccc(-c2csc(-c3ccccc3)n2)c(OC)c1`, the kinetic solubility stood at 3.3 µg/mL (≈ 11.1 µM). Regarding `CCCCNC1c2ccccc2C(=O)N1Cc1ccccc1.Cl` (stereo not drawn), the solubility (kinetic) is 47.5 µg/mL. Next, `CC1(C(=O)N2CCN(c3ccccc3)CC2)CC1(Cl)Cl` (stereo not drawn): 46.8 µg/mL (≈ 149 µM); `Brc1ccc(OCCCCN2CCCCC2)cc1`: 40.7 µg/mL (≈ 130 µM). To `Cc1cc(C)c(C)c(S(=O)(=O)Nc2ccccc2N2CCOCC2)c1C` belongs 1.7 µg/mL (≈ 4.54 µM); to `Cc1cc(C(=O)CSc2nc(N)cc(=O)[nH]2)ccc1F`, 32.5 µg/mL (≈ 111 µM); to `Cc1cccc(C(=O)Oc2ccccc2C(=O)N2CCOCC2)c1`, over 48.8 µg/mL.

Regarding `O=[N+]([O-])c1ccccc1CNC1CCCc2ccccc21` (stereo not drawn), the kinetic solubility was determined as 20.8 µg/mL (≈ 73.7 µM). As for `O=S1(=O)CC(O)C(NCCO)C1` (stereo not drawn), the kinetic solubility is over 29.3 µg/mL.

Turning to `NC(=O)c1ccsc1NC(=O)c1ccc([N+](=O)[O-])o1`, the solubility (kinetic) was 20.5 µg/mL (≈ 72.9 µM). Consider `CC(NC(=O)c1ccc(F)cc1)C1CC2CCC1C2` (stereo not drawn), for which the kinetic solubility was found to be 6.9 µg/mL (≈ 26.4 µM). In turn, `O=C(CSc1ccc([N+](=O)[O-])cc1)Nc1ccccc1N1CCOCC1` registered a solubility (kinetic) of 4.9 µg/mL (≈ 13.1 µM). Next, `O=C(Nc1ccc(OC(F)(F)F)cc1)Oc1ccccc1N1CCCCC1`: 9.7 µg/mL (≈ 25.5 µM); `CC(NC(=O)c1ccc(Br)o1)C1CCCO1` (stereo not drawn): over 43.2 µg/mL; `O=c1c2cccnc2nc2n1CCCCC2`: over 32.3 µg/mL. `Cc1cc(=O)[nH]c(N2CCN(C(=O)c3ccco3)CC2)n1` showed a kinetic solubility of over 43.2 µg/mL.

In the case of `O=S(=O)(NC1CC2CCC1C2)c1ccc(Br)cc1` (stereo not drawn), the solubility (kinetic) came to 13.9 µg/mL (≈ 42.1 µM). On to `Cn1c(=O)c([N+](=O)[O-])c(NCc2ccc3c(c2)OCO3)c2ccccc21`, for which the kinetic solubility was 0.9 µg/mL (≈ 2.55 µM). Next, `O=C1NC2=C(C(=O)CCC2)C(c2ccc([N+](=O)[O-])cc2)N1` (stereo not drawn): over 43.1 µg/mL; `O=C(Nc1cc2c(cc1[N+](=O)[O-])OCCO2)c1cccnc1`: 5.1 µg/mL (≈ 16.9 µM); `COc1ccc(CC(=O)N2CCc3ccccc3C2)cc1`: 39.6 µg/mL (≈ 141 µM). `C=CCN1CCN(C(=O)c2oc3ccccc3c2C)CC1` showed a kinetic solubility of over 42.7 µg/mL. As for `O=C(CCc1c[nH]c2ccccc12)NCc1cccc(Cl)c1`, the kinetic solubility was found to be 40.3 µg/mL (≈ 129 µM).

`Cc1ccc(NS(=O)(=O)c2ccc(C)c(NC(=S)NCCN3CCOCC3)c2)c(C)c1`: the solubility (kinetic) was over 69.4 µg/mL. Turning to `Cc1cc(NC(=O)c2ccco2)c(=O)n(Cc2cccc(C(F)(F)F)c2)c1`, the kinetic solubility is under 0.4 µg/mL.

Compound `COc1ccc(NC(=O)CN2CC(C)OC(C)C2)cc1Cl` (stereo not drawn) came in with a kinetic solubility of 43 µg/mL (≈ 137 µM). Consider `COc1ccc(C)cc1NC(=O)C1CC1c1ccccc1` (stereo not drawn), for which the solubility (kinetic) is 4.7 µg/mL (≈ 16.7 µM). `COc1ccc2nc(N/C(N)=N/S(C)(=O)=O)nc(C)c2c1` yielded a kinetic solubility of 3.1 µg/mL (≈ 10 µM). Turning to `Cc1csc(NC(=O)c2ccc(S(=O)(=O)N3CCN(C)CC3)cc2)n1`, the kinetic solubility came to 54.5 µg/mL (≈ 143 µM). With `O=C(O)c1ccc(SCc2ccccc2)nc1`, the solubility (kinetic) was over 36.8 µg/mL. In the case of `CC1(C)C2CCC(C2)C1(C)N=C1OC(CCl)CS1` (stereo not drawn), the kinetic solubility is 5.9 µg/mL (≈ 20.5 µM). Compound `COc1ccc(S(=O)(=O)N2CCOCC2)cc1NC(=O)COC(=O)CC1CC2CCC1C2` (stereo not drawn) displayed a kinetic solubility of 11.3 µg/mL (≈ 24.2 µM). Turning to `COc1ccc(/C=C/C(=O)OCC(=O)N(C)CC(=O)Nc2ccc(C)cc2)c(OC)c1`, the solubility (kinetic) is 4.4 µg/mL (≈ 10.3 µM). In turn, `O=C(CCn1cnc2ccccc2c1=O)Nc1cccc(Cl)c1Cl` registered a kinetic solubility of 3.8 µg/mL (≈ 10.5 µM). Consider `COc1ccc2[nH]c(C(=O)NCCN3CCOCC3)cc2c1`, for which the solubility (kinetic) stood at 31.6 µg/mL (≈ 104 µM). With `COC1=C(N2CCOCC2)C(=O)c2ccccc2C1=O`, the kinetic solubility was over 41 µg/mL.

Turning to `N#C/C(=C\c1ccc(F)c(Br)c1)C(=O)NC1CC1`, the solubility (kinetic) is 6.1 µg/mL (≈ 19.7 µM). With `COc1ccc2nc(C)cc(NCc3ccc(F)cc3)c2c1`, the kinetic solubility is over 44.5 µg/mL. As for `Cc1ccc(NC(=O)Nc2ccccc2)nc1`, the solubility (kinetic) came out at 2.6 µg/mL (≈ 11.4 µM).

For `COc1ccc2[nH]c(C)c(C(=O)CN(C)CC3OCCO3)c2c1`, the solubility (kinetic) worked out at 45.9 µg/mL (≈ 144 µM). Regarding `CN(CC(=O)NCc1cccnc1)S(=O)(=O)c1ccc(F)cc1`, the solubility (kinetic) is over 50.6 µg/mL. Compound `CC(=O)c1ccc(N2CCN(C(=O)c3cccs3)C(C)C2)c(F)c1` (stereo not drawn) returned a kinetic solubility of over 52 µg/mL. `Nc1nc2ccccc2cc1-c1cccs1` registered a kinetic solubility of 27.7 µg/mL (≈ 122 µM). Compound `O=c1ccc2cc(S(=O)(=O)Nc3ccccc3F)ccc2o1` returned a kinetic solubility of over 47.9 µg/mL. With `Cc1ccccc1CS(=O)(=O)CC(O)CN1CCCC1=O` (stereo not drawn), the kinetic solubility is over 46.7 µg/mL. Compound `O=C(COC(=O)CCC(=O)c1cccs1)NCc1ccccc1` showed a solubility (kinetic) of 45.6 µg/mL (≈ 138 µM). Consider `CC(NC(=S)NC(=O)c1ccccc1)c1ccccc1` (stereo not drawn), for which the solubility (kinetic) came out at 6.4 µg/mL (≈ 22.5 µM). In turn, `O=C(Nc1ccccc1C(=O)Nc1ccccc1)c1cccs1` showed a solubility (kinetic) of 1 µg/mL (≈ 3.1 µM). `COc1ccc(-c2c(=O)n(OC)c3ccccc3[n+]2[O-])cc1OC` returned a kinetic solubility of over 49.2 µg/mL. For `COc1cc(NC(=O)CCN2CCOCC2)cc(OC)c1`, the solubility (kinetic) was over 44.2 µg/mL. The compound `CCn1c(Oc2ccc(F)cc2)nc2c1c(=O)n(C)c(=O)n2C` had a kinetic solubility of over 47.7 µg/mL. `COc1ccc(/C=C/C(=O)OCC(=O)NC2CCCC2)cc1OC` registered a solubility (kinetic) of 48.6 µg/mL (≈ 146 µM). For the compound `COc1ccc(CCC(=O)NCCc2nc3ccccc3[nH]2)cc1`, the solubility (kinetic) was determined as 8.8 µg/mL (≈ 27.2 µM).

Take `Cc1ccn2c(NC3CCCC3)c(-c3ccccn3)nc2c1`: the kinetic solubility worked out at 30.6 µg/mL (≈ 105 µM). On to `CCN(CC)CC(C)OC(=O)c1ccccc1Cl` (stereo not drawn), for which the solubility (kinetic) came out at 37.9 µg/mL (≈ 140 µM). The compound `COc1ccc(N/C(=N/c2nc(C)cc(C)n2)NC(=O)c2ccccc2)cc1` had a kinetic solubility of 0.3 µg/mL (≈ 0.799 µM). Take `CC(C)NC(=O)NC(=O)COC(=O)C1(C)CC1(Cl)Cl` (stereo not drawn): the solubility (kinetic) is over 46.7 µg/mL. Consider `CCCCC(=O)NC(c1ccccc1)c1ccc2cccnc2c1O` (stereo not drawn), for which the solubility (kinetic) is under 0.4 µg/mL. `CCOc1ccccc1C(=O)Nc1cccc2ccccc12` showed a solubility (kinetic) of under 0.6 µg/mL. In turn, `CC(C)(C(=O)c1cccnc1)c1cccnc1` showed a kinetic solubility of over 33.9 µg/mL. Next, `N/C(=N/OC(=O)c1ccccc1Cl)c1ncc([N+](=O)[O-])s1`: 1.3 µg/mL (≈ 3.98 µM); `Cc1ccc(N(C)S(=O)(=O)c2cccc(C(=O)N3CCN(Cc4ccccc4)CC3)c2)cc1`: 23 µg/mL (≈ 49.6 µM); `COc1ccc(OCC(=O)NCCCCCCNC(=O)COc2ccc(OC)cc2)cc1`: 2.6 µg/mL (≈ 5.85 µM). On to `Cc1cc(C)cc(NC(=O)CCN2CCOCC2)c1`, for which the kinetic solubility was over 39.4 µg/mL. `CC(=O)SC1CC(=O)N(c2c(C)cccc2C)C1=O` (stereo not drawn) came in with a kinetic solubility of over 41.6 µg/mL. `O=C(NCc1ccccc1CN1CCCC1)c1cc2ccccc2o1` returned a kinetic solubility of over 50.2 µg/mL. Compound `CCc1cc(Cl)c(OC)c(C(=O)NC[C@@H]2CCCN2CC)c1O.Cl` displayed a solubility (kinetic) of over 56.6 µg/mL. Consider `CC(C)(C)c1ccc(C(=O)NC(=O)COC(=O)c2ccc(Br)o2)cc1`, for which the kinetic solubility was found to be 12.5 µg/mL (≈ 30.6 µM). `CC(=O)O.CC(C)CC1NC(C(=O)O)Cc2c1[nH]c1ccccc21` (stereo not drawn) had a kinetic solubility of 48.4 µg/mL. With `COc1ccc(NC(=O)CN2C(=O)CSC2=O)cc1`, the kinetic solubility is over 42 µg/mL. `Cc1cc(OCCCCN2C(=O)NC(C)(C)C2=O)ccc1[N+](=O)[O-]` came in with a solubility (kinetic) of over 50.3 µg/mL. The compound `Cc1ccc(CNc2nc(-c3cccnc3)nc3ccccc23)cc1` showed a kinetic solubility of 2.5 µg/mL (≈ 7.66 µM). As for `Cc1cc(C(=O)COC(=O)/C=C/c2cccc(F)c2)c(C)n1C`, the kinetic solubility was under 0.7 µg/mL. `Fc1ccc(NC(=S)N2CCc3[nH]c4ccccc4c3C2)cc1` yielded a kinetic solubility of 1.2 µg/mL (≈ 3.69 µM).

The compound `C/C(=N\O)c1ccc(Cl)c(Cl)c1` showed a kinetic solubility of 11.9 µg/mL (≈ 58.3 µM).

`CCCCn1c(N)c(NCc2ccccc2)c(=O)[nH]c1=O` registered a solubility (kinetic) of 39.1 µg/mL (≈ 136 µM).

The compound `O=C(NCc1ccc2c(c1)OCO2)c1c(Cl)cccc1Cl` showed a solubility (kinetic) of 15 µg/mL (≈ 46.3 µM). Regarding `Cc1ccc(NC(=O)Cn2c([N+](=O)[O-])cnc2C)cc1Cl`, the kinetic solubility came to 1.6 µg/mL (≈ 5.18 µM). For the compound `COc1cccc(CNC(C)C(=O)Nc2ccc(S(=O)(=O)N3CCCC3)cc2)c1` (stereo not drawn), the kinetic solubility was over 62.6 µg/mL. The compound `Cc1ccc2c(COC(=O)CNS(=O)(=O)c3ccccc3)cc(=O)oc2c1` had a solubility (kinetic) of 21.6 µg/mL (≈ 55.8 µM). Turning to `COCCNC(=O)/C(C#N)=C/c1ccc(OCc2ccc(F)cc2)cc1`, the kinetic solubility came to 3.4 µg/mL (≈ 9.59 µM).
